Source: ChEMBL document CHEMBL4507272 (2021)

Tests used:
[1] = biological target: Aurora kinase A (Homo sapiens) (UniProt O14965); settings: Compound concentration 1000.0 nM
[2] = biological target: Serine/threonine-protein kinase BRSK2 (Homo sapiens) (UniProt Q8IWQ3); settings: Compound concentration 1000.0 nM
[3] = biological target: Tyrosine-protein kinase BTK (Homo sapiens) (UniProt Q06187); settings: Compound concentration 1000.0 nM
[4] = biological target: Calcium/calmodulin-dependent protein kinase type II subunit beta (Homo sapiens) (UniProt Q13554); settings: Compound concentration 1000.0 nM
[5] = biological target: Calcium/calmodulin-dependent protein kinase type II subunit delta (Homo sapiens) (UniProt Q13557); settings: Compound concentration 1000.0 nM
[6] = biological target: Calcium/calmodulin-dependent protein kinase type IV (Homo sapiens) (UniProt Q16566); settings: Compound concentration 1000.0 nM
[7] = biological target: Cyclin-dependent kinase-like 2 (Homo sapiens) (UniProt Q92772); settings: Compound concentration 1000.0 nM
[8] = biological target: Serine/threonine-protein kinase Chk2 (Homo sapiens) (UniProt O96017); settings: Compound concentration 1000.0 nM
[9] = biological target: Macrophage colony-stimulating factor 1 receptor (Homo sapiens) (UniProt P07333); settings: Compound concentration 1000.0 nM
[10] = biological target: Casein kinase I isoform delta (Homo sapiens) (UniProt P48730); settings: Compound concentration 1000.0 nM
[11] = biological target: Serine/threonine-protein kinase 17B (Homo sapiens) (UniProt O94768); settings: Compound concentration 1000.0 nM
[12] = biological target: Dual specificity tyrosine-phosphorylation-regulated kinase 2 (Homo sapiens) (UniProt Q92630); settings: Compound concentration 1000.0 nM
[13] = biological target: Ephrin type-A receptor 5 (Homo sapiens) (UniProt P54756); settings: Compound concentration 1000.0 nM
[14] = biological target: Tyrosine-protein kinase Fer (Homo sapiens) (UniProt P16591); settings: Compound concentration 1000.0 nM
[15] = tested on: Receptor-type tyrosine-protein kinase FLT3 (Homo sapiens), P36888 [UNDEFINED MUTATION]; settings: Compound concentration 1000.0 nM
[16] = biological target: Tyrosine-protein kinase HCK (Homo sapiens) (UniProt P08631); settings: Compound concentration 1000.0 nM
[17] = biological target: LIM domain kinase 2 (Homo sapiens) (UniProt P53671); settings: Compound concentration 1000.0 nM
[18] = biological target: Leucine-rich repeat serine/threonine-protein kinase 2 (Homo sapiens) (UniProt Q5S007); settings: Compound concentration 1000.0 nM
[19] = biological target: MAP kinase-activated protein kinase 2 (Homo sapiens) (UniProt P49137); settings: Compound concentration 1000.0 nM
[20] = biological target: Serine/threonine-protein kinase MARK2 (Homo sapiens) (UniProt Q7KZI7); settings: Compound concentration 1000.0 nM
[21] = biological target: MAP kinase-interacting serine/threonine-protein kinase 2 (Homo sapiens) (UniProt Q9HBH9); settings: Compound concentration 1000.0 nM
[22] = biological target: Mitogen-activated protein kinase kinase kinase 10 (Homo sapiens) (UniProt Q02779); settings: Compound concentration 1000.0 nM
[23] = biological target: Serine/threonine-protein kinase MRCK beta (Homo sapiens) (UniProt Q9Y5S2); settings: Compound concentration 1000.0 nM
[24] = biological target: Muscle, skeletal receptor tyrosine-protein kinase (Homo sapiens) (UniProt O15146); settings: Compound concentration 1000.0 nM
[25] = biological target: Myosin-IIIa (Homo sapiens) (UniProt Q8NEV4); settings: Compound concentration 1000.0 nM
[26] = biological target: Serine/threonine-protein kinase Nek1 (Homo sapiens) (UniProt Q96PY6); settings: Compound concentration 1000.0 nM
[27] = biological target: Serine/threonine-protein kinase Nek6 (Homo sapiens) (UniProt Q9HC98); settings: Compound concentration 1000.0 nM
[28] = biological target: Serine/threonine-protein kinase OSR1 (Homo sapiens) (UniProt O95747); settings: Compound concentration 1000.0 nM
[29] = biological target: Mitogen-activated protein kinase 11 (Homo sapiens) (UniProt Q15759); settings: Compound concentration 1000.0 nM
[30] = biological target: Calcium-dependent protein kinase 1 (Plasmodium falciparum) (UniProt P62344); settings: Compound concentration 1000.0 nM
[31] = biological target: Serine/threonine-protein kinase pim-2 (Homo sapiens) (UniProt Q9P1W9); settings: Compound concentration 1000.0 nM
[32] = biological target: Serine/threonine-protein kinase PknB (Mycobacterium tuberculosis) (UniProt P9WI81); settings: Compound concentration 1000.0 nM
[33] = biological target: cGMP-dependent protein kinase 1 (Homo sapiens) (UniProt Q13976); settings: Compound concentration 1000.0 nM
[34] = biological target: cGMP-dependent protein kinase 2 (Homo sapiens) (UniProt Q13237); settings: Compound concentration 1000.0 nM
[35] = biological target: Ribosomal protein S6 kinase alpha-3 (Homo sapiens) (UniProt P51812); settings: Compound concentration 1000.0 nM
[36] = biological target: Serine/threonine-protein kinase SIK2 (Homo sapiens) (UniProt Q9H0K1); settings: Compound concentration 1000.0 nM
[37] = biological target: SRSF protein kinase 1 (Homo sapiens) (UniProt Q96SB4); settings: Compound concentration 1000.0 nM
[38] = biological target: SRSF protein kinase 3 (Homo sapiens) (UniProt Q9UPE1); settings: Compound concentration 1000.0 nM
[39] = biological target: Serine/threonine-protein kinase TAO1 (Homo sapiens) (UniProt Q7L7X3); settings: Compound concentration 1000.0 nM
[40] = biological target: Serine/threonine-protein kinase tousled-like 2 (Homo sapiens) (UniProt Q86UE8); settings: Compound concentration 1000.0 nM
[41] = biological target: Serine/threonine-protein kinase ULK2 (Homo sapiens) (UniProt Q8IYT8); settings: Compound concentration 1000.0 nM
[42] = biological target: Serine/threonine-protein kinase WNK3 (Homo sapiens) (UniProt Q9BYP7); settings: Compound concentration 1000.0 nM
[43] = biological target: Tyrosine-protein kinase ZAP-70 (Homo sapiens) (UniProt P43403); settings: Compound concentration 1000.0 nM
[44] = biological target: Delta-type opioid receptor (Homo sapiens) (UniProt P41143); settings: Compound concentration 10.0 uM
[45] = biological target: Muscarinic acetylcholine receptor M1 (Homo sapiens) (UniProt P11229); settings: Compound concentration 10.0 uM

Calcium/calmodulin-dependent protein kinase type II subunit delta (Homo sapiens), sequence (Q13557 whole entry): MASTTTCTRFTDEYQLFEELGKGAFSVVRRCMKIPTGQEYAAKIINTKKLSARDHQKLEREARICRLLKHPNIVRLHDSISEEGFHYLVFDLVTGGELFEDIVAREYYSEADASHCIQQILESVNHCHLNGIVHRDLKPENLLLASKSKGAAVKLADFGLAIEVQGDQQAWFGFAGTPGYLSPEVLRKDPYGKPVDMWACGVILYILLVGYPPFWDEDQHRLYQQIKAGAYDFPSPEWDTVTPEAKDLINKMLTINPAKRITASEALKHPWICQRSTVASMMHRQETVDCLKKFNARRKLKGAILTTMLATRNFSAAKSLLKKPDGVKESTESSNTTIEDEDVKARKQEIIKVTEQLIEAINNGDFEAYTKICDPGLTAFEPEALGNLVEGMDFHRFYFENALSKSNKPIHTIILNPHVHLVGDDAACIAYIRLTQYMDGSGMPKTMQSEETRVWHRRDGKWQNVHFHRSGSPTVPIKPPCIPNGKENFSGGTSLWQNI
Tyrosine-protein kinase ZAP-70 (Homo sapiens), sequence (P43403 whole entry): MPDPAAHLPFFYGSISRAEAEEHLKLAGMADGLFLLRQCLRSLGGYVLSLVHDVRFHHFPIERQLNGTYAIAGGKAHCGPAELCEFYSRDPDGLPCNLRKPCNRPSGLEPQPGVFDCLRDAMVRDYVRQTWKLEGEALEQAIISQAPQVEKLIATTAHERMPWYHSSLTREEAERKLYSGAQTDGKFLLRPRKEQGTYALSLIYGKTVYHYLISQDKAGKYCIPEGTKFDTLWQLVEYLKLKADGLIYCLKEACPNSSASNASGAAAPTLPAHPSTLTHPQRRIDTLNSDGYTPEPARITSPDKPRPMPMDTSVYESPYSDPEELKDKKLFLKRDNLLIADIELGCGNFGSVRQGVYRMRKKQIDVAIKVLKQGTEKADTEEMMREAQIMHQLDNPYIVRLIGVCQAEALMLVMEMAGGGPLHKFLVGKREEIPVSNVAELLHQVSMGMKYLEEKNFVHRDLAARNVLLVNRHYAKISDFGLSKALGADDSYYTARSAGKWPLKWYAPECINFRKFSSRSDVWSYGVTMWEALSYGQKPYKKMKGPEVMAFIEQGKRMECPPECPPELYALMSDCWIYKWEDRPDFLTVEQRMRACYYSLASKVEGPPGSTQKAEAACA
Serine/threonine-protein kinase 17B (Homo sapiens), sequence (O94768 whole entry): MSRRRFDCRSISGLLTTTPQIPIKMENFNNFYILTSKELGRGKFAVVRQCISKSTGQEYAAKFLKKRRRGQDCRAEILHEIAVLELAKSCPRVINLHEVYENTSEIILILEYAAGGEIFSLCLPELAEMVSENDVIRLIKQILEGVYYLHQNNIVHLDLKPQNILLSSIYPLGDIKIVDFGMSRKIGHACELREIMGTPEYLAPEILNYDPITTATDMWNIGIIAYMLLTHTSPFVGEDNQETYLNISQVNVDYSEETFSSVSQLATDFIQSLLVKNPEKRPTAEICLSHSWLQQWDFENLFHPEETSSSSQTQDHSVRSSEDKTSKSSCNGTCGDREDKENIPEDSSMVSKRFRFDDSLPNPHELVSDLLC
cGMP-dependent protein kinase 2 (Homo sapiens), sequence (Q13237 whole entry): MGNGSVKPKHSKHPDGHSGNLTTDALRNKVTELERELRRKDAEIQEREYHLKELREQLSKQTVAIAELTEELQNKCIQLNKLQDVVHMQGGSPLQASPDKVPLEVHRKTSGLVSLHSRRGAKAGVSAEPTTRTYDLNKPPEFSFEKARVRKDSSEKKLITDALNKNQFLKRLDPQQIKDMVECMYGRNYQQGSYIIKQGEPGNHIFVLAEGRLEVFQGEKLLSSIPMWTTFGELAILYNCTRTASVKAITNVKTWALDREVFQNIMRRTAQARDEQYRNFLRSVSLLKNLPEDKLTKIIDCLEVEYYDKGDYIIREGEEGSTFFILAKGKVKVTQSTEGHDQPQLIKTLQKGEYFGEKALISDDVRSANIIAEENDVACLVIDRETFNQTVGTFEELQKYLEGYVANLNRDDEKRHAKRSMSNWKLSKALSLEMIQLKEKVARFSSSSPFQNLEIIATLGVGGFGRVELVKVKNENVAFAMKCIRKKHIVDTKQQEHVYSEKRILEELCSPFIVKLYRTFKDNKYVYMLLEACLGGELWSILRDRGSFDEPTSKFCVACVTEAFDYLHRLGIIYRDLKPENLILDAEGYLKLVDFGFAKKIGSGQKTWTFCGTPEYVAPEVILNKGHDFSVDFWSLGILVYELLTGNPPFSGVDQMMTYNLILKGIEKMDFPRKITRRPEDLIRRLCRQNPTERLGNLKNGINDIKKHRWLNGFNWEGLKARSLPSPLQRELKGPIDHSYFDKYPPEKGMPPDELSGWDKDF
SRSF protein kinase 3 (Homo sapiens), sequence (Q9UPE1 whole entry): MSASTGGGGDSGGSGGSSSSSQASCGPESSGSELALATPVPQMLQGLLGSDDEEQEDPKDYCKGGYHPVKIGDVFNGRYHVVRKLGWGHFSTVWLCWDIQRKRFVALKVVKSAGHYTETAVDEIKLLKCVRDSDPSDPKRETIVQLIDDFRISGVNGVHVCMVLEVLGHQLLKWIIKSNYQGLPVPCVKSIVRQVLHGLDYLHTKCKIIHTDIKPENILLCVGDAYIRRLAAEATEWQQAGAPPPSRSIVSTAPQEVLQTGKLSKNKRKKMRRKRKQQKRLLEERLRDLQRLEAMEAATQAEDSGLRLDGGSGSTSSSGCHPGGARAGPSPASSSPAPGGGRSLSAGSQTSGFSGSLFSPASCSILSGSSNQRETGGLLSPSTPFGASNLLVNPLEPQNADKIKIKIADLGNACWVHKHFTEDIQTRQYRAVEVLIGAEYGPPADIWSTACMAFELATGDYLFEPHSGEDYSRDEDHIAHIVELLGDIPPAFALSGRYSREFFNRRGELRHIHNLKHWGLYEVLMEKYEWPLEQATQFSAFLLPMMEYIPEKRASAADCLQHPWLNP
Ribosomal protein S6 kinase alpha-3 (Homo sapiens), sequence (P51812 whole entry): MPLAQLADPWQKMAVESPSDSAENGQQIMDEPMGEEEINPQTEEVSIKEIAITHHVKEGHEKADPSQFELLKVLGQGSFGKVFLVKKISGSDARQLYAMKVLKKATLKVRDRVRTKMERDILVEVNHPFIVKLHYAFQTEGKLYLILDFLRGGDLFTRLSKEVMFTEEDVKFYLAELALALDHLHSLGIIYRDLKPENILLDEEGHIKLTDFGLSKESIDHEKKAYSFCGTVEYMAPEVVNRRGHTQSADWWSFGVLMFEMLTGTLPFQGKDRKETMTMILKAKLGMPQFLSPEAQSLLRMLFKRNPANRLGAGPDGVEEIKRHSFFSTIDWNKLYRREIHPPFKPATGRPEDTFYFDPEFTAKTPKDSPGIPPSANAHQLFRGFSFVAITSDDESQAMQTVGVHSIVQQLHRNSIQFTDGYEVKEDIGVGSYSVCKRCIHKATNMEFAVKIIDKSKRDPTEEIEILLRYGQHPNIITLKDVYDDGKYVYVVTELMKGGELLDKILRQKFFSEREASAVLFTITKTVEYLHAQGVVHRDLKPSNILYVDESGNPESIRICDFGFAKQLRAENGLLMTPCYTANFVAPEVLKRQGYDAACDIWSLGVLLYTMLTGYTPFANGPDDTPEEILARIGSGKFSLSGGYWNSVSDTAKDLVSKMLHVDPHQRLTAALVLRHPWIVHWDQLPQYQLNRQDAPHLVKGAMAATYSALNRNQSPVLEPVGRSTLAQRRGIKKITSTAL
Serine/threonine-protein kinase pim-2 (Homo sapiens), sequence (Q9P1W9 whole entry, looked up): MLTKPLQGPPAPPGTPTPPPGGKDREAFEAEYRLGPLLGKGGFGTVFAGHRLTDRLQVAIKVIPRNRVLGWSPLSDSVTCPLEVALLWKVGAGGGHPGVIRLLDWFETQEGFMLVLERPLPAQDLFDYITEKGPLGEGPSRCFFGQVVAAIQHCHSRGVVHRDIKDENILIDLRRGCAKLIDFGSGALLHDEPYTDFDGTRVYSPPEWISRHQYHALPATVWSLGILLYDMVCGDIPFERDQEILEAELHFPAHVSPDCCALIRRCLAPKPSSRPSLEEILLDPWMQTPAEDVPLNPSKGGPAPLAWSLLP
Dual specificity tyrosine-phosphorylation-regulated kinase 2 (Homo sapiens), sequence (Q92630 whole entry): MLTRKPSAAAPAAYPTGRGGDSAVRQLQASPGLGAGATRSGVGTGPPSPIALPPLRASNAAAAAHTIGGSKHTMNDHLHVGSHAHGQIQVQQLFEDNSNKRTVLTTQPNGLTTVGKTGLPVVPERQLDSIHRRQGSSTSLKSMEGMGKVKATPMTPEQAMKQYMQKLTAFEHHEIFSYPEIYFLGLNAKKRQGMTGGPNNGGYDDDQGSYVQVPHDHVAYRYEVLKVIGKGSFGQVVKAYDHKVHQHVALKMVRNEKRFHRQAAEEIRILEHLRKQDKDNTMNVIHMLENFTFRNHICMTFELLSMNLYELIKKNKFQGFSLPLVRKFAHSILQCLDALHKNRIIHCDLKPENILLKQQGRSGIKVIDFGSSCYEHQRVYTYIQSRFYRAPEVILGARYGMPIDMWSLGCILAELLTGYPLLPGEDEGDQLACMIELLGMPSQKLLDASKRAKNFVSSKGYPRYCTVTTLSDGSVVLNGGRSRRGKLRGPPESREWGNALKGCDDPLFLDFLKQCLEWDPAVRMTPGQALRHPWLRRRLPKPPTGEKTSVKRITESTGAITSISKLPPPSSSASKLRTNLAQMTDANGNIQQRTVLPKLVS
Cyclin-dependent kinase-like 2 (Homo sapiens), sequence (Q92772 whole entry): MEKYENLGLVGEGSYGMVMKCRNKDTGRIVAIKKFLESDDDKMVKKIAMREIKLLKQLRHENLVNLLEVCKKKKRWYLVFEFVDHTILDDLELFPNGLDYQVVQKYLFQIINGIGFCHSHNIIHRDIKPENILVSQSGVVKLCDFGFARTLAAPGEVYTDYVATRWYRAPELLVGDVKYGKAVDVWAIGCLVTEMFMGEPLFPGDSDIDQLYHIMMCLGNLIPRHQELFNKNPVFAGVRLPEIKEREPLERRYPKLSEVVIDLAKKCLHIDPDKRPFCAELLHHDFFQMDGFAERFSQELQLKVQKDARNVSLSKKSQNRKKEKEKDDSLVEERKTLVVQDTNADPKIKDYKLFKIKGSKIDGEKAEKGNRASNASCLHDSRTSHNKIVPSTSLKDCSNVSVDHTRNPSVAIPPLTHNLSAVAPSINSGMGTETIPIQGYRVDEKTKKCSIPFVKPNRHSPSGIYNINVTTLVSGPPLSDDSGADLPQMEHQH

SMILES: CC(=O)C1=C(C)N(c2cccc(C(F)(F)F)c2)C(=O)N[C@@H]1c1ccc(C#N)nc1 [BAY-678]
- residual activity [1]: 83.9%
- residual activity [2]: 100%
- residual activity [3]: 100%
- residual activity [4]: 95.7%
- residual activity [5]: 100%
- residual activity [6]: 54.3%
- residual activity [7]: 75.4%
- residual activity [8]: 85.6%
- residual activity [9]: 99.4%
- residual activity [10]: 100%
- residual activity [11]: 100%
- residual activity [12]: 100%
- residual activity [13]: 98.2%
- residual activity [14]: 96.9%
- residual activity [15]: 100%
- residual activity [16]: 87.7%
- residual activity [17]: 91.7%
- residual activity [18]: 80.7%
- residual activity [19]: 82.6%
- residual activity [20]: 100%
- residual activity [21]: 84.8%
- residual activity [22]: 92.1%
- residual activity [23]: 100%
- residual activity [24]: 100%
- residual activity [25]: 85.1%
- residual activity [26]: 100%
- residual activity [27]: 100%
- residual activity [28]: 100%
- residual activity [29]: 100%
- residual activity [30]: 94.8%
- residual activity [31]: 98.2%
- residual activity [32]: 82.7%
- residual activity [33]: 45.5%
- residual activity [34]: 100%
- residual activity [35]: 99.2%
- residual activity [36]: 87.8%
- residual activity [37]: 67.5%
- residual activity [38]: 100%
- residual activity [39]: 100%
- residual activity [40]: 100%
- residual activity [41]: 100%
- residual activity [42]: 100%
- residual activity [43]: 88.1%
- inhibition [44]: -6.02%
- inhibition [45]: -4.65%
